Reference: US10806783B2, “Vaccine compositions” (priority 2014, dated 2020)

System: Influenza virus
Assay type: in vivo
Conditions: Example 4, FIG. 3; BALB-c mice, subcutaneous, day 0 and day 21; various time points; 2 μg antigen, freeze-dried and stored at 45° C.

CN(C)CC(=O)O [dimethylglycine, Dimethylglycine]
HIA titre (effect with different excipients): antigen sparing effect and acceleration of onset of immunity observed with polyethyleneimine are also observed
